Measured values: patent US12595247B2, “Substituted pyrazolo piperidine carboxylic acids” (Bayer Aktiengesellschaft, priority 2020, dated 2026)
pEC50: −log10 of the molar value. Structures can show the parent of a compound that is named as a salt.

Columns and labels:
[1] = target: T1, recombinant guanylate cyclase reporter cell line (Rattus norvegicus, UniProt P20595); experiment: Effect on a recombinant guanylate cyclase reporter cell line; type: cell-based; conditions: for pEC50: read-out: EC50 (half maximal effective concentration)
T1 construct: expressed in transfected cells; host or cells: recombinant reporter cell line
T1 sequence (P20595 1-619): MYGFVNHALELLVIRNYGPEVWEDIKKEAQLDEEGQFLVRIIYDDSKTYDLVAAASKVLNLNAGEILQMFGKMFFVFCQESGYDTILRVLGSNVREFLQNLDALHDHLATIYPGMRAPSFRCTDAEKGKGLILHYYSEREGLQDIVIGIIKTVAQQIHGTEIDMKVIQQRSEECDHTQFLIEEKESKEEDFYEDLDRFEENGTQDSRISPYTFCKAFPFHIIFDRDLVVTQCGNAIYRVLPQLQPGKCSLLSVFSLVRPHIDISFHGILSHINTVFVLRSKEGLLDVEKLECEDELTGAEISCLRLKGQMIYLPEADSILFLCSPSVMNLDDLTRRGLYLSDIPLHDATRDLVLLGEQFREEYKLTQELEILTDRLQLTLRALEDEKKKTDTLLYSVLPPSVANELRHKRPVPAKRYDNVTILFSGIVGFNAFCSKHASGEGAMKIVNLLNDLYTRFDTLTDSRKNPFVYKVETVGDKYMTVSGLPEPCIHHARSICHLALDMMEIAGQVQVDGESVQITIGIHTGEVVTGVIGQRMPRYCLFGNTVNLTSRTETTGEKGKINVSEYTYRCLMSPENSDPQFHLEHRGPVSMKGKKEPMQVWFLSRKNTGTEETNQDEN
T1 sequence (P19686 1-690 partner): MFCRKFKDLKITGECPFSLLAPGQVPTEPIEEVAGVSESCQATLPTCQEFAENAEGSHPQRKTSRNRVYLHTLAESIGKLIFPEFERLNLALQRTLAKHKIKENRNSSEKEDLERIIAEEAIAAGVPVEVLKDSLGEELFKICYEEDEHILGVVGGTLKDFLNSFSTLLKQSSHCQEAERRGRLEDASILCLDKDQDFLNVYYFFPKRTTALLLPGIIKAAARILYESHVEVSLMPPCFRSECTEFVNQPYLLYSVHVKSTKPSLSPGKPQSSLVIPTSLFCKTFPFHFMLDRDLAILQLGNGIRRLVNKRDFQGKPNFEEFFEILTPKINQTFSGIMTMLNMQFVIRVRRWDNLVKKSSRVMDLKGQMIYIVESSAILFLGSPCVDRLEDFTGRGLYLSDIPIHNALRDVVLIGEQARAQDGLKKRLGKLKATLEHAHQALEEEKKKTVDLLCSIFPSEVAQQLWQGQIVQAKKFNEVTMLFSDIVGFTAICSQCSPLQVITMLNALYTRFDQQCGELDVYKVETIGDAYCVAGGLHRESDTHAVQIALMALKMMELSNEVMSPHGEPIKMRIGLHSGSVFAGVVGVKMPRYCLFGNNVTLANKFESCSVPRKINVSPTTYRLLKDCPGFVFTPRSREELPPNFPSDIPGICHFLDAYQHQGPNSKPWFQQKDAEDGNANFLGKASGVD
Procedure: B-1. Effect on a Recombinant Guanylate Cyclase Reporter Cell Line
The cellular activity of the compounds according to the invention was determined using a recombinant guanylate cyclase reporter cell line, as described in F. Wunder et al., Anal. Biochem. 339, 104-112 (2005).

[2] = Pharmacokinetic parameters following intravenous and oral administration in rats; type: in vivo, male Wistar rats
Source text: (§1) • Klaus Witte, Kai Hu, Johanna Swiatek, Claudia Müssig, Georg Ertl and Björn Lemmer: Experimental heart failure in rats: effects on cardiovascular circadian rhythms and on myocardial β-adrenergic signaling. Cardiovasc Res 47 (2): […], 2000; Kozo Okamoto: Spontaneous hypertension in rats. Int Rev Exp Pathol 7: 227-270, 1969; Maarten van den Buuse: Circadian Rhythms of Blood Pressure, Heart Rate, and Locomotor Activity in Spontaneously Hypertensive Rats as Measured With Radio-Telemetry. Physiology & Behavior 55(4): 783-787, 1994. B-5. Determination of Pharmacokinetic Parameters Following Intravenous and Oral Administration
(§2) The pharmacokinetic parameters of the compounds according to the invention were determined in male Wistar rats and/or in female beagles and/or in cynomolgus monkeys and/or in male CD-1 mice. Intravenous administration in the case of mice and rats was carried out by means of a species-specific plasma/DMSO formulation, and in the case of dogs and monkeys by means of a water/PEG400/ethanol formulation. In all species, oral administration of the dissolved substance was performed via gavage, based on a water/PEG400/ethanol formulation.
(§3) An internal standard (which may also be a chemically unrelated substance) was added to the samples of the compounds of the invention, calibration samples and qualifiers, and there followed protein precipitation by means of acetonitrile in excess. Addition of a buffer solution matched to the LC conditions, and subsequent vortexing, was followed by centrifugation at 1000 g. The supernatant was analysed by LC-MS/MS using C18 reversed-phase columns and variable mobile phase mixtures. The substances were quantified via the peak heights or areas from extracted ion chromatograms of specific selected ion monitoring experiments.
(§4) The plasma concentration/time plots determined were used to calculate the pharmacokinetic parameters such as AUC, Cmax, t1/2 (terminal half-life), F (bioavailability), MRT (mean residence time) and CL (clearance), by means of a validated pharmacokinetic calculation program.
(§5) Since the substance quantification was performed in plasma, it was necessary to determine the blood/plasma distribution of the substance in order to be able to adjust the pharmacokinetic parameters correspondingly.
(§6) For this purpose, a defined amount of substance was incubated in K3 EDTA whole blood of the species in question in a rocking roller mixer for 20 min. After centrifugation at 1000 g, the plasma concentration was measured (by means of LC-MS/MS; see above) and determined by calculating the ratio of the Cblood/Cplasma value.

[3] = Pharmacokinetic parameters following intravenous and oral administration in dogs; type: in vivo, female beagles; conditions: for bioavailability: female, beagle, dog, plasma, read-out: F (bioavailability)
Source text: as §1, §2, §3, §4, §5, §6

[4] = rats, intravenous administration
[5] = rats, oral administration (p.o.)

| MEC (minimum effective concentration) [1] [nM] | AUCnorm [2, 4] [kg·h/L] | AUCnorm [2, 5] [kg·h/L] | F (bioavailability) [2, 5] [%] | pEC50 [1] | lower plasma clearance (CLplasma) in comparison to example 174 in WO 2012/058132 ([2]; in rats as well as in dogs) | bioavailability ([3]; oral administration (p.o.)) [%] | AUCnorm ([3]; intravenous administration) [kg·h/L] | AUCnorm ([3]; oral administration (p.o.)) [kg·h/L] | bioavailability ([2]; male, Wistar, rat, plasma, po, rats, oral administration (p.o.), read-out: F (bioavailability)) [%] | SMILES |
| --- | --- | --- | --- | --- | --- | --- | --- | --- | --- | --- |
| 2.3 | 1.77 | 0.57 | 31.4 |  |  |  |  |  |  | CC(C)CN1CCN(c2ccc(-c3ccc(Cl)cc3N3CCCC(n4ncc(C(=O)O)c4C(F)F)C3)cc2)CC1 (single isomer, unassigned; enantiomer 1) [Example 1, 1-[1-{4-Chloro-4′-[4-(2-methylpropyl)piperazin-1-yl][1,1′-biphenyl]-2-yl}piperidin-3-yl]-5-(difluoromethyl)-1H-pyrazole-4-carboxylic acid hydrochloride (Enantiomer 1)] |
| 1.0 | 7.08 | 3.77 | 53.3 | 8.07 | up to 10 times | 82.8 | 81.7 | 67.7 |  | CC(C)CN1CCN(c2ccc(-c3ccc(Cl)cc3N3CCCC(n4ncc(C(=O)O)c4C(F)F)C3)cc2)CC1 (single isomer, unassigned; enantiomer 2) [Example 2, 1-[1-{4-Chloro-4′-[4-(2-methylpropyl)piperazin-1-yl][1,1′-biphenyl]-2-yl}piperidin-3-yl]-5-(difluoromethyl)-1H-pyrazole-4-carboxylic acid (Enantiomer 2)] |
| 0.6 |  |  |  | 8.57 |  |  |  |  |  | CC(C)CN1CCN(c2ccc(-c3ccc(Cl)cc3N3CCCC(n4ncc(C(=O)O)c4C(F)F)C3)cc2)CC1 (single isomer, unassigned; enantiomer 2) [Example 3, 1-{1-[4-Chloro-4′-(4-isobutylpiperazin-1-yl)[biphenyl]-2-yl]piperidin-3-yl}-5-(difluoromethyl)-1H-pyrazole-4-carboxylic acid hydrochloride (Enantiomer 2)] |
|  | 0.77 | 0.63 |  |  |  | 41.6 | 5.00 | 2.08 | 81.8 | O=C(O)c1cnn(-c2cccc(-c3cc(Cl)ccc3-c3ccc(N4CCN(CC5CC5)CC4)cc3)n2)c1C(F)(F)F [174 (WO2012/058132), reference compound] |
